This passage reports Ki results from ChEMBL document CHEMBL1141706 (Bioorg Med Chem Lett, 2008).

Molecules are shown by their SMILES.

In the experiment the target is 5-hydroxytryptamine receptor 2A (Homo sapiens, UniProt P28223). In words: Displacement of [3H]ketanserin from human 5HT2A receptor.
Chain of 5-hydroxytryptamine receptor 2A (P28223 whole entry): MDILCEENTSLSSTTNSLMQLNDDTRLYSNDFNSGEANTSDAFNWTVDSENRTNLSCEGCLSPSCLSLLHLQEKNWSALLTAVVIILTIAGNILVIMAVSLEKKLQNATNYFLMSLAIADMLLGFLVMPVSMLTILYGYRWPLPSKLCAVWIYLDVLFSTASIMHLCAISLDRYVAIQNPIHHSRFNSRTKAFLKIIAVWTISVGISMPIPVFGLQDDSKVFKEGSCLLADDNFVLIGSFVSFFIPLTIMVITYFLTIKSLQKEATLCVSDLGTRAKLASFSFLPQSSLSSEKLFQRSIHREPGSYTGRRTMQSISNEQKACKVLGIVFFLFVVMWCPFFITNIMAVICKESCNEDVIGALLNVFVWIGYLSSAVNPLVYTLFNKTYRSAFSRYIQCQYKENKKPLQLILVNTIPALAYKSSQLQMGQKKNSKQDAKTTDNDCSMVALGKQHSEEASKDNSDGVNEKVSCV
The compound `COc1cccc2c1Cc1ccccc1C2CN` (centres undefined) had a Ki of 124 nM.

Consider `COc1cccc2c1C(CN)c1ccccc1C2` (centres undefined), for which affinity was put at a Ki of 1160 nM.

Turning to `COc1ccc2c(c1)C(CN)c1ccccc1C2` (centres undefined), affinity was put at a Ki of 1370 nM.

The compound `COc1ccc2c(c1)Cc1ccccc1C2CN` (centres undefined) displayed a Ki of 7.5 nM. Compared with the last compound, the Ki is about 180-fold lower.
